From ChEMBL document CHEMBL3137667, “[Drug-induced liver injury; fourteenth updated edition of the bibliographic database of liver injuries and related drugs]” (Gastroenterol Clin Biol, 2004) come the findings set out here.

Data set [1] is described as follows: Highest frequency of moderate liver toxicity observed during clinical trials, expressed as a percentage. [column '% BIOL' in source]. The conditions noted are these: human.
A short description of data set [2]: Highest frequency of acute liver toxicity observed during clinical trials, expressed as a percentage. [column '% AIGUE' in source]. Conditions: human.
The nature of data set [3]: Proposed mechanism(s) of liver damage. [column 'MEC' in source]. Conditions: human.
For data set [4] the following is noted: human, serum.
For data set [5] the following is noted: human, serum. This is another data set of the same source.
The conditions of data set [6]: human.
The conditions of data set [7]: human. This is another data set of the same source.
The conditions of data set [8]: human. The source holds these as a separate data set.
For data set [9] the following is noted: human, serum, 4383 h.
The conditions of data set [10]: human. This is another data set of the same source.
For data set [11] the following is noted: human. This is another data set of the same source.
For data set [12] the following is noted: human. The source holds these as a separate data set.
The conditions of data set [13]: human. This is another data set of the same source.
The conditions of data set [14]: human. This is another data set of the same source.
The conditions of data set [15]: human. The source holds these as a separate data set.
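Wherever Hepatotoxicity (association with vascular disease) is given: count of indexed literature references reporting vascular liver injury in humans, e.g. peliosis hepatitis, hepatic veno-occlusive disease or Budd-Chiari syndrome.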
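Wherever Hepatotoxicity (benign tumour) is given: value is a count of indexed literature references citing a benign tumour confirmed by histopathology.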
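Wherever Hepatotoxicity (choleostasis) is given: human cholestatic liver injury, shown by histopathology or by peak ALT or AST elevation over alkaline phosphatase ratio below 2, value counts indexed literature reports.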
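Wherever Hepatotoxicity (chronic liver disease) is given: chronic liver injury confirmed by histopathology or persistently raised serum aminotransferase activity beyond 6 months, value given as the count of indexed literature references.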
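Wherever Hepatotoxicity (cirrhosis) is given: value is a count of indexed literature references reporting cirrhosis confirmed by histopathology.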
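Wherever Hepatotoxicity (cytolytic) is given: human cytolytic liver injury, shown by histopathology or by a ratio above 5 of peak ALT or AST elevation to alkaline phosphatase elevation, value counts indexed references.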
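Wherever Hepatotoxicity (granulomatous hepatitis) is given: value is a count of indexed literature references reporting granulomatous liver disease confirmed by histopathology.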
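Wherever Hepatotoxicity (malignant tumour) is given: malignant tumour confirmed by histopathology, value gives the count of indexed literature references reporting it.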
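Wherever Hepatotoxicity (severe hepatitis) is given: human clinical data: severe hepatitis, meaning potentially life-threatening liver failure or clinically observed cases, the value counts how many indexed literature references report it.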
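Wherever Hepatotoxicity (steatosis) is given: steatosis confirmed by histopathology, value is the count of indexed references.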

As to `O=C(NO)c1ccc(O)c(O)c1`, the figures for the “Hepatotoxicity (moderate)” value in data set [1] and in data set [4] were 0% and 1, respectively. The figures for the “Hepatotoxicity (acute)” value in [2] and in data set [5] were 0% and 1, respectively. Further, the “Hepatotoxicity (mechanism)” value in [3] is “Dose-dependant”. Moreover, the “Hepatotoxicity (cytolytic)” value in data set [6] was 0. Also, in [7], the “Hepatotoxicity (choleostasis)” value was determined as 0. Besides, in data set [8], the “Hepatotoxicity (severe hepatitis)” value turned out to be 0. Further, the “Hepatotoxicity (chronic liver disease)” value in data set [9] is listed as 0. In addition, the “Hepatotoxicity (cirrhosis)” value in data set [10] was 0. For the same molecule, in [11], the “Hepatotoxicity (granulomatous hepatitis)” value amounted to 0. Moreover, in data set [12], the “Hepatotoxicity (association with vascular disease)” value came to 0. Besides, the “Hepatotoxicity (steatosis)” value in data set [13] was 0. The “Hepatotoxicity (malignant tumour)” value in data set [14] came to 0. Further, the “Hepatotoxicity (benign tumour)” value in [15] is listed as 0.
Take `Cc1cnc(NC(=O)C2=C(O)c3ccccc3S(=O)(=O)N2C)s1` [MELOXICAM]: the figures for the “Hepatotoxicity (moderate)” value in [1] (Liver) and in data set [4] were 11.5% and 6, respectively. The “Hepatotoxicity (acute)” value in data set [2] (Liver) came out at 0%; in data set [5], 1. In addition, the “Hepatotoxicity (mechanism)” value in data set [3] is listed as “Dose-dependant”. For the same molecule, the “Hepatotoxicity (cytolytic)” value in data set [6] worked out at 0. Moreover, in [7], the “Hepatotoxicity (choleostasis)” value was determined as 0. For the same molecule, the “Hepatotoxicity (severe hepatitis)” value in [8] (Liver) was determined as 0. For the same molecule, the “Hepatotoxicity (chronic liver disease)” value in [9] turned out to be 0. Moreover, the “Hepatotoxicity (cirrhosis)” value in data set [10] is on record as 0. Also, the “Hepatotoxicity (granulomatous hepatitis)” value in [11] is given as 0. Further, the “Hepatotoxicity (association with vascular disease)” value in [12] was 0. In data set [13], the “Hepatotoxicity (steatosis)” value was 0. The “Hepatotoxicity (malignant tumour)” value in data set [14] was 0. Besides, in data set [15], the “Hepatotoxicity (benign tumour)” value turned out to be 0.
In the case of `O=C[C@H](O)[C@@H](O)[C@H](O)[C@H](O)CO[C@H]1O[C@H](CO[C@H]2O[C@H](CO)[C@@H](O)[C@H](O)[C@H]2O)[C@@H](O)[C@H](O)[C@H]1O` [DEXTRAN], the results for the “Hepatotoxicity (moderate)” value in data set [1] and in [4] were 43.7% and 2, respectively. Also, the “Hepatotoxicity (acute)” value amounted to 0% in [2] and 0 in data set [5]. Also, the “Hepatotoxicity (mechanism)” value in [3] was “Dose-dependant”. Besides, the “Hepatotoxicity (cytolytic)” value in [6] stood at 0. In addition, in data set [7], the “Hepatotoxicity (choleostasis)” value worked out at 0. Also, in data set [8], the “Hepatotoxicity (severe hepatitis)” value worked out at 0. Further, the “Hepatotoxicity (chronic liver disease)” value in data set [9] stood at 0. The “Hepatotoxicity (cirrhosis)” value in data set [10] came out at 0. Moreover, in data set [11], the “Hepatotoxicity (granulomatous hepatitis)” value was determined as 0. Further, the “Hepatotoxicity (association with vascular disease)” value in data set [12] amounted to 0. In addition, the “Hepatotoxicity (steatosis)” value in data set [13] turned out to be 0. Besides, the “Hepatotoxicity (malignant tumour)” value in data set [14] amounted to 0. Also, the “Hepatotoxicity (benign tumour)” value in data set [15] is on record as 0.
For `C=CCC1(C(C)C#CCC)C(=O)N=C(O)N(C)C1=O` (stereo not given) [METHOHEXITAL], the figures for the “Hepatotoxicity (moderate)” value in data set [1] and in data set [4] were 0% and 1, respectively. Besides, the results for the “Hepatotoxicity (acute)” value in data set [2] and in [5] were 0% and 0, respectively. Moreover, the “Hepatotoxicity (mechanism)” value in data set [3] is given as “Dose-dependant”. For the same molecule, in [6], the “Hepatotoxicity (cytolytic)” value amounted to 0. Also, the “Hepatotoxicity (choleostasis)” value in data set [7] came out at 0. Further, in data set [8], the “Hepatotoxicity (severe hepatitis)” value came to 0. Further, the “Hepatotoxicity (chronic liver disease)” value in [9] came out at 0. Moreover, the “Hepatotoxicity (cirrhosis)” value in data set [10] is reported as 0. Moreover, in data set [11], the “Hepatotoxicity (granulomatous hepatitis)” value is on record as 0. The “Hepatotoxicity (association with vascular disease)” value in data set [12] is on record as 0. The “Hepatotoxicity (steatosis)” value in data set [13] is 0. The “Hepatotoxicity (malignant tumour)” value in [14] came to 0. Moreover, the “Hepatotoxicity (benign tumour)” value in data set [15] was 0.
`CN(Cc1cnc2nc(N)nc(N)c2n1)c1c(Cl)cc(C(=O)N[C@@H](CCC(=O)O)C(=O)O)cc1Cl`: the entries for the “Hepatotoxicity (moderate)” value in data set [1] and in data set [4] were 16.7% and 2, respectively. In addition, the “Hepatotoxicity (acute)” value in data set [2] turned out to be 0%; in data set [5] it was 0. Further, the “Hepatotoxicity (mechanism)” value in data set [3] is “Dose-dependant”. Moreover, the “Hepatotoxicity (cytolytic)” value in data set [6] amounted to 0. Further, the “Hepatotoxicity (choleostasis)” value in data set [7] was 0. For the same molecule, the “Hepatotoxicity (severe hepatitis)” value in [8] worked out at 0. Moreover, the “Hepatotoxicity (chronic liver disease)” value in data set [9] is given as 0. Besides, in data set [10], the “Hepatotoxicity (cirrhosis)” value was found to be 0. Moreover, in data set [11], the “Hepatotoxicity (granulomatous hepatitis)” value is 0. The “Hepatotoxicity (association with vascular disease)” value in data set [12] was 0. Besides, the “Hepatotoxicity (steatosis)” value in data set [13] was 0. The “Hepatotoxicity (malignant tumour)” value in data set [14] is 0. In addition, in data set [15], the “Hepatotoxicity (benign tumour)” value was 0.
In the case of `CCN(CC)CC[n+]1ccc2c(C)c3[nH]c4ccc(O)cc4c3c(C)c2c1.[Cl-]` [DATELLIPTIUM CHLORIDE], the results for the “Hepatotoxicity (moderate)” value in data set [1] and in [4] were 66.7% and 2, respectively. The results for the “Hepatotoxicity (acute)” value in data set [2] and in data set [5] were 7.1% and 2, respectively. For the same molecule, in data set [3], the “Hepatotoxicity (mechanism)” value is reported as “Dose-dependant”. The “Hepatotoxicity (cytolytic)” value in data set [6] was found to be 2. The “Hepatotoxicity (choleostasis)” value in data set [7] came to 0. For the same molecule, the “Hepatotoxicity (severe hepatitis)” value in data set [8] is given as 0. Further, the “Hepatotoxicity (chronic liver disease)” value in [9] is 0. The “Hepatotoxicity (cirrhosis)” value in data set [10] turned out to be 0. In data set [11], the “Hepatotoxicity (granulomatous hepatitis)” value turned out to be 0. Besides, the “Hepatotoxicity (association with vascular disease)” value in data set [12] came to 0. In data set [13], the “Hepatotoxicity (steatosis)” value was determined as 0. Besides, the “Hepatotoxicity (malignant tumour)” value in data set [14] worked out at 0. The “Hepatotoxicity (benign tumour)” value in [15] is 0.
`O=C1CN(/N=C/c2ccc([N+](=O)[O-])o2)C(=O)N1CO` [NIFURTOINOL]: the “Hepatotoxicity (moderate)” value is listed as 0% in [1] and 0 in data set [4]. Further, the results for the “Hepatotoxicity (acute)” value in data set [2] and in data set [5] were 0% and 0, respectively. In [3], the “Hepatotoxicity (mechanism)” value is on record as “Allergic”. Besides, the “Hepatotoxicity (cytolytic)” value in data set [6] turned out to be 0. The “Hepatotoxicity (choleostasis)” value in data set [7] was 0. Also, in data set [8], the “Hepatotoxicity (severe hepatitis)” value was found to be 0. The “Hepatotoxicity (chronic liver disease)” value in [9] is 2. Moreover, in [10], the “Hepatotoxicity (cirrhosis)” value is given as 0. Further, the “Hepatotoxicity (granulomatous hepatitis)” value in data set [11] stood at 0. The “Hepatotoxicity (association with vascular disease)” value in data set [12] is recorded as 0. In data set [13], the “Hepatotoxicity (steatosis)” value is 0. The “Hepatotoxicity (malignant tumour)” value in data set [14] is given as 0. In addition, the “Hepatotoxicity (benign tumour)” value in data set [15] was 0.
For the molecule `COc1nc(C)ccc1CN1CC1C#N` (stereo not given) [CIAMEXON], the “Hepatotoxicity (moderate)” value stood at 14% in data set [1] and 2 in data set [4]. Besides, the entries for the “Hepatotoxicity (acute)” value in data set [2] and in data set [5] were 0% and 0, respectively. The “Hepatotoxicity (mechanism)” value in data set [3] is recorded as “Dose-dependant”. The “Hepatotoxicity (cytolytic)” value in data set [6] was found to be 0. Besides, in data set [7], the “Hepatotoxicity (choleostasis)” value is reported as 0. Moreover, in data set [8], the “Hepatotoxicity (severe hepatitis)” value came to 0. Further, in data set [9], the “Hepatotoxicity (chronic liver disease)” value is 0. In addition, the “Hepatotoxicity (cirrhosis)” value in [10] is 0. In data set [11], the “Hepatotoxicity (granulomatous hepatitis)” value is recorded as 0. The “Hepatotoxicity (association with vascular disease)” value in data set [12] came to 0. Besides, in [13], the “Hepatotoxicity (steatosis)” value turned out to be 0. In addition, the “Hepatotoxicity (malignant tumour)” value in data set [14] is given as 0. Besides, the “Hepatotoxicity (benign tumour)” value in data set [15] was 0.
Turning to `CC(C)(O/N=C(\C(=O)N[C@@H]1C(=O)N2C(C(=O)[O-])=C(C[n+]3ccccc3)CS[C@H]12)c1csc(N)n1)C(=O)O` [CEFTAZIDIME], the “Hepatotoxicity (moderate)” value in data set [1] was determined as 35.7%; in [4], 77. For the same molecule, the “Hepatotoxicity (acute)” value was 2.5% in [2] and 2 in data set [5]. Besides, in data set [3], the “Hepatotoxicity (mechanism)” value was “Dose-dependant”. Moreover, in [6], the “Hepatotoxicity (cytolytic)” value was 0. The “Hepatotoxicity (choleostasis)” value in data set [7] was 2. Besides, the “Hepatotoxicity (severe hepatitis)” value in data set [8] came to 0. The “Hepatotoxicity (chronic liver disease)” value in data set [9] is on record as 0. In addition, in data set [10], the “Hepatotoxicity (cirrhosis)” value is given as 0. Further, the “Hepatotoxicity (granulomatous hepatitis)” value in data set [11] is given as 0. The “Hepatotoxicity (association with vascular disease)” value in [12] was 0. Besides, the “Hepatotoxicity (steatosis)” value in data set [13] is listed as 0. Also, the “Hepatotoxicity (malignant tumour)” value in data set [14] is given as 0. In data set [15], the “Hepatotoxicity (benign tumour)” value is 0.
`CCCCNC(=N)NC(=N)N` [BUFORMIN]: the “Hepatotoxicity (moderate)” value stood at 0% in [1] (Liver) and 0 in data set [4]. Also, the “Hepatotoxicity (acute)” value in [2] (Liver) is on record as 0%; in data set [5], 1. Also, in data set [3] (Liver), the “Hepatotoxicity (mechanism)” value is given as “Allergic”. Moreover, the “Hepatotoxicity (cytolytic)” value in [6] (Liver) is 0. For the same molecule, the “Hepatotoxicity (choleostasis)” value in data set [7] (Liver) worked out at 0. Also, in [8] (Liver), the “Hepatotoxicity (severe hepatitis)” value is given as 0. The “Hepatotoxicity (chronic liver disease)” value in data set [9] is 0. Moreover, the “Hepatotoxicity (cirrhosis)” value in data set [10] stood at 0. In data set [11] (Liver), the “Hepatotoxicity (granulomatous hepatitis)” value was 0. Also, the “Hepatotoxicity (association with vascular disease)” value in data set [12] worked out at 0. Moreover, the “Hepatotoxicity (steatosis)” value in data set [13] is listed as 0. Besides, the “Hepatotoxicity (malignant tumour)” value in data set [14] stood at 0. In addition, in data set [15], the “Hepatotoxicity (benign tumour)” value amounted to 0.
Consider `CCOC(=O)c1c(N)sc2c1CCN(Cc1ccccc1)C2` [TINORIDINE], for which the “Hepatotoxicity (moderate)” value in data set [1] is on record as 0%; in data set [4], 1. Besides, the “Hepatotoxicity (acute)” value in [2] is on record as 0%; in data set [5], 1. In [3], the “Hepatotoxicity (mechanism)” value was “Allergic”. In data set [6], the “Hepatotoxicity (cytolytic)” value came to 0. Besides, in data set [7], the “Hepatotoxicity (choleostasis)” value amounted to 0. Also, the “Hepatotoxicity (severe hepatitis)” value in [8] is 0. Moreover, in data set [9], the “Hepatotoxicity (chronic liver disease)” value came out at 0. The “Hepatotoxicity (cirrhosis)” value in data set [10] was determined as 0. Besides, in [11], the “Hepatotoxicity (granulomatous hepatitis)” value is recorded as 0. For the same molecule, the “Hepatotoxicity (association with vascular disease)” value in [12] stood at 0. The “Hepatotoxicity (steatosis)” value in data set [13] was 0. Moreover, the “Hepatotoxicity (malignant tumour)” value in data set [14] was 0. Besides, the “Hepatotoxicity (benign tumour)” value in data set [15] amounted to 0.
